# From article PMC6950218 (Journal of Medicinal Chemistry, 2011)
# Like-named read-outs stand apart in the source and are kept apart here.
# Key:
# [1] = system: P. falciparum strain 3D7; assay: Antimalarial proliferation inhibition assay; type: cell-based, Plasmodium falciparum; conditions: for IC50: mean of at least two experiments
# [2] = system: P. falciparum strain W2; assay: Antimalarial proliferation inhibition assay; type: cell-based, Plasmodium falciparum; conditions: mean of at least two experiments
# [3] = not given; remark: listed apart in the source
# [4] = system: Caco-2; conditions: for Caco-2 A–B: apical to basolateral; for Caco-2 B–A: basolateral to apical
# [5] = not given; remark: listed apart in the source
# [6] = not given; remark: listed apart in the source
# [7] = system: Huh7; assay: Cytotoxicity Huh7; type: cell-based
# [8] = system: CHO; assay: Cytotoxicity CHO; type: cell-based
# [9] = system: HeLa; assay: Cytotoxicity HeLa; type: cell-based
# [10] = system: HEp2; assay: Cytotoxicity HEp2; type: cell-based
# [11] = Maximum tolerable dose test in rats; conditions: rats in vivo
# [12] = system: Ba/F3; assay: Cytotoxicity Ba/F3; type: cell-based
# [13] = Micronucleus test
# [14] = mini-Ames test
# [15] = resynthesized powders (data in brackets)
# [16] = Plasmodium falciparum, 3D7, read-out: P. falciparum strain IC50 3D7, resynthesized powders (data in brackets)
# [17] = Plasmodium falciparum, W2, read-out: P. falciparum strain IC50 W2, resynthesized powders (data in brackets)
molecule,measurement,setting,value
"3-Amino-1-(2-(4-fluorophenyl)-3-(4-fluorophenylamino)-5,6-dihydroimidazo[1,2-a]pyrazin-7(8H)-yl)propan-1-one [Compound 29]",IC50,[1]; read-out: P. falciparum strain IC50 3D7,30 nM
same,IC50,[2]; read-out: P. falciparum strain IC50 W2,23 nM
same,hepatic microsome metabolic stability (extraction ratio) mouse,,0.21
same,hepatic microsome metabolic stability (extraction ratio) human,[3],0.21
same,Caco-2 A–B,[4],0.99 cm/s × 10^6
same,Caco-2 B–A,[4],2.99 cm/s × 10^6
same,PAMPA (% absorbed),[5],low
same,hepatic microsome metabolic stability (extraction ratio) rat,[6],0.38
"NCC(=O)N1CCn2c(nc(-c3ccccc3)c2Nc2ccc3c(c2)OCO3)C1 [Compound 1a, 2-Amino-1-(3-(benzo[d][1,3]dioxol-5-ylamino)-2-phenyl-5,6-dihydroimidazo[1,2-a]pyrazin-7(8H)-yl)ethanone]",cyotoxicity Huh7,[7]; HTS DMSO stock solutions,> 10 µM
same,cyotoxicity Huh7,[7]; [15],> 100 µM
same,IC50,[1]; [16],460 nM
same,IC50,[2]; [17],473 nM
"NC(Cc1ccccc1)C(=O)N1CCn2c(nc(-c3ccccc3)c2Nc2ccc3c(c2)OCO3)C1 (stereo not drawn) [Compound 1b, 2-Amino-1-(3-(benzo[d][1,3]dioxol-5-ylamino)-2-phenyl-5,6-dihydroimidazo[1,2-a]pyrazin-7(8H)-yl)-3-phenylpropan-1-one]",cyotoxicity Huh7,[7]; HTS DMSO stock solutions,> 10 µM
same,cyotoxicity Huh7,[7]; [15],> 79 µM
same,IC50,[1]; [16],119 nM
same,IC50,[2]; [17],122 nM
"CC(C)CC(N)C(=O)N1CCn2c(nc(-c3ccccc3)c2Nc2ccc3c(c2)OCO3)C1 (stereo not drawn) [Compound 1c, 2-Amino-1-(3-(benzo[d][1,3]dioxol-5-ylamino)-2-phenyl-5,6-dihydroimidazo[1,2-a]pyrazin-7(8H)-yl)-4-methylpentan-1-one]",cyotoxicity Huh7,[7]; HTS DMSO stock solutions,> 10 µM
same,cyotoxicity Huh7,[7]; [15],42 µM
same,IC50,[1]; [16],30 nM
same,IC50,[2]; [17],29 nM
"NCC(=O)N1CCn2c(nc(-c3ccc(F)cc3)c2Nc2ccc(F)cc2)C1 [Compound 5, 2-Amino-1-(2-(4-fluorophenyl)-3-(4-fluorophenylamino)-5,6-dihydroimidazo[1,2-a]pyrazin-7(8H)-yl)ethanone]",fold more potent than the original hit compound 1a,[1],4 fold
same,Caco-2 A–B,[4],0.70 cm/s × 10^6
same,Caco-2 B–A,[4],2.55 cm/s × 10^6
same,PAMPA (% absorbed),[5],52 % absorbed
"CC(C)(N)C(=O)N1CCn2c(nc(-c3ccc(F)cc3)c2Nc2ccc(F)cc2)C1 [Compound 11, 2-Amino-1-(2-(4-fluorophenyl)-3-(4-fluorophenylamino)-5,6-dihydroimidazo[1,2-a]pyrazin-7(8H)-yl)-2-methylpropan-1-one]",cytotoxicity TC50 Huh7,[7],greater than 12 μM
same,cytotoxicity TC50 CHO,[8],greater than 12 μM
same,cytotoxicity TC50 HeLa,[9],greater than 12 μM
same,cytotoxicity TC50 HEp2,[10],greater than 12 μM
same,Caco-2 A–B,[4],3.05 cm/s × 10^6
same,Caco-2 B–A,[4],8.38 cm/s × 10^6
same,PAMPA (% absorbed),[5],81 % absorbed
same,maximum tolerable dose test,[11],no gross effects at doses up to 500 mg/kg
"NCC(=O)N1CCn2c(nc(-c3cccc(F)c3)c2Nc2ccc(F)cc2)C1 [Compound 18, 2-Amino-1-(3-((4-fluorophenyl)amino)-2-(3-fluorophenyl)-5,6-dihydroimidazo[1,2-a]pyrazin-7(8H)-yl)ethanone]",Caco-2 A–B,[4],0.56 cm/s × 10^6
same,Caco-2 B–A,[4],2.32 cm/s × 10^6
same,PAMPA (% absorbed),[5],low
"NCC(=O)N1CCn2c(nc(-c3ccc(F)cc3)c2Nc2ccc(Cl)cc2)C1 [Compound 27, 2-Amino-1-(3-(4-chlorophenylamino)-2-(4-fluorophenyl)-5,6-dihydroimidazo[1,2-a]pyrazin-7(8H)-yl)ethanone]",Caco-2 A–B,[4],0.44 cm/s × 10^6
same,Caco-2 B–A,[4],1.25 cm/s × 10^6
same,PAMPA (% absorbed),[5],52 % absorbed
"CC(C)(N)C(=O)N1CCn2c(nc(-c3ccc(F)cc3)c2Nc2ccc(Cl)cc2)C1 [Compound 28, 2-Amino-1-(3-(4-chlorophenylamino)-2-(4-fluorophenyl)-5,6-dihydroimidazo[1,2-a]pyrazin-7(8H)-yl)-2-methylpropan-1-one]",Caco-2 A–B,[4],1.46 cm/s × 10^6
same,Caco-2 B–A,[4],1.86 cm/s × 10^6
same,PAMPA (% absorbed),[5],89 % absorbed
"CC(C)(N)C(=O)N1CCn2c(nc(-c3ccc(F)cc3)c2Nc2ccc(F)c(F)c2)C1 [Compound 30, 2-Amino-1-(3-(3,4-difluorophenylamino)-2-(4-fluorophenyl)-5,6-dihydroimidazo[1,2-a]pyrazin-7(8H)-yl)-2-methylpropan-1-one]",cytotoxicity TC50 Huh7,[7],greater than 12 μM
same,cytotoxicity TC50 Ba/F3,[12],greater than 12 μM
same,cytotoxicity TC50 CHO,[8],greater than 12 μM
same,cytotoxicity TC50 HeLa,[9],greater than 12 μM
same,cytotoxicity TC50 HEp2,[10],greater than 12 μM
same,Caco-2 A–B,[4],0.14 cm/s × 10^6
same,Caco-2 B–A,[4],1.03 cm/s × 10^6
same,PAMPA (% absorbed),[5],86 % absorbed
same,micronucleus test,[13],negative
same,mini-Ames test,[14],negative
"CC(C)(N)C(=O)N1CCn2c(nc(-c3ccc(F)cc3)c2Nc2ccc(Cl)c(F)c2)C1 [Compound 32, 2-Amino-1-(3-(4-chloro-3-fluorophenylamino)-2-(4-fluorophenyl)-5,6-dihydroimidazo[1,2-a]pyrazin-7(8H)-yl)-2-methylpropan-1-one]",Caco-2 A–B,[4],0.84 cm/s × 10^6
same,Caco-2 B–A,[4],0.87 cm/s × 10^6
same,PAMPA (% absorbed),[5],94 % absorbed
